Test results from patent publication US11591323B2, “Muscarinic agonists as non-steroidal and non-opioid analgesics and methods of use thereof” (Barry University, priority 2019, dated 2023).
“And” between values parts separate entries of the source, which are not always exact repeats. Identical values can stand only once.

Experiments:
Set-up in all cases: host or cells: CHO cells, stably transfected
M5 muscarinic receptor = target: T1, M5 muscarinic receptor (Homo sapiens, UniProt P08912); experiment: accumulation of IPX, M5 CHO cells (M5Gq); type: cell-based
T1 sequence (P08912 1-532): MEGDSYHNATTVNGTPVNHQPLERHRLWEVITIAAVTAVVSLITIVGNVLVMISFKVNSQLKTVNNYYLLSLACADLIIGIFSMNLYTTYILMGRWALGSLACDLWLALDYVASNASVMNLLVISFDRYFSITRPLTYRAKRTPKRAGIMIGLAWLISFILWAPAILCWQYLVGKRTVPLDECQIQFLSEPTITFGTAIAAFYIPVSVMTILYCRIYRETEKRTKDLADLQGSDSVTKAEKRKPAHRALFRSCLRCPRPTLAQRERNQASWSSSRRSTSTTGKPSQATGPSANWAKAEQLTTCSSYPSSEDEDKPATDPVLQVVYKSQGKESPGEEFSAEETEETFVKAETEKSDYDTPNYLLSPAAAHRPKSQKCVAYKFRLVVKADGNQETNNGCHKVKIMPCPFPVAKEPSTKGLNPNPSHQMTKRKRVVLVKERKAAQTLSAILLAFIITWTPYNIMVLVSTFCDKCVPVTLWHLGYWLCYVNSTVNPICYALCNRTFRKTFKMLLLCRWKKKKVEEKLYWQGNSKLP

M3 muscarinic receptor = M3 muscarinic receptor (Homo sapiens, UniProt P20309); experiment: [3H]NMS competition binding, M3 CHO membranes; details: Inhibition constants (KI) as negative logarithms
Chain of M3 muscarinic receptor (P20309 whole entry): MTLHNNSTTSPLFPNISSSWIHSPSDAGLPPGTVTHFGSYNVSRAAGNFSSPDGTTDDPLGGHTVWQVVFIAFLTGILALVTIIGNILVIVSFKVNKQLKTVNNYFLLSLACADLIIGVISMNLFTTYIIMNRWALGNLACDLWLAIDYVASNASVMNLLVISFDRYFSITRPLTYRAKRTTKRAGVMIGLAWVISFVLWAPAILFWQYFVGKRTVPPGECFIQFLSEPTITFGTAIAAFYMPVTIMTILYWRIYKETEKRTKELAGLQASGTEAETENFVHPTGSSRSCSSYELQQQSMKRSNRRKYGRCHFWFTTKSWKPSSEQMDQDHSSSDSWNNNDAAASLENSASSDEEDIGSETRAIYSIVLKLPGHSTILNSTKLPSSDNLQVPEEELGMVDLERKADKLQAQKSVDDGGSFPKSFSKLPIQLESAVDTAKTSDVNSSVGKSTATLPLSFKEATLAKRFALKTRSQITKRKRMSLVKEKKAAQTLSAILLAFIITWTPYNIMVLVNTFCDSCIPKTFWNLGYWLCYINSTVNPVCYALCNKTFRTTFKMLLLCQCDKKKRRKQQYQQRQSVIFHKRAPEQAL

M1 muscarinic receptor [1] = target: T2, M1 muscarinic receptor (Homo sapiens, UniProt P11229); experiment: [3H]NMS competition binding, M1 CHO membranes; details: Inhibition constants (KI) as negative logarithms
T2 sequence (P11229 1-460): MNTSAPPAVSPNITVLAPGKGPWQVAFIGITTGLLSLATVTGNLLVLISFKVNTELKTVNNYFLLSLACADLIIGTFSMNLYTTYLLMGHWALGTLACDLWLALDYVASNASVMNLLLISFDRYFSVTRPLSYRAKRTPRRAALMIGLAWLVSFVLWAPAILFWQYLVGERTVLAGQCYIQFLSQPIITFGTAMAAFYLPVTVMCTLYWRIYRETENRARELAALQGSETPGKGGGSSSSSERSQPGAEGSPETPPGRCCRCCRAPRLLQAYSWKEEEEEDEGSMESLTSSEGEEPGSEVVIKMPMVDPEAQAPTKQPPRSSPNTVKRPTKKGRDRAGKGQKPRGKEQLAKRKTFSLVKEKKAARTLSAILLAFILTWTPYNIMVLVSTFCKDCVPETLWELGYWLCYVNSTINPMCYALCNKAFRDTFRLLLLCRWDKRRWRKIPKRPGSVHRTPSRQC

M2 muscarinic receptor = target: T3, M2 muscarinic receptor (Homo sapiens, UniProt P08172); experiment: [3H]NMS competition binding, M2 CHO membranes; details: Inhibition constants (KI) as negative logarithms, reference agonists
T3 sequence (P08172 1-466): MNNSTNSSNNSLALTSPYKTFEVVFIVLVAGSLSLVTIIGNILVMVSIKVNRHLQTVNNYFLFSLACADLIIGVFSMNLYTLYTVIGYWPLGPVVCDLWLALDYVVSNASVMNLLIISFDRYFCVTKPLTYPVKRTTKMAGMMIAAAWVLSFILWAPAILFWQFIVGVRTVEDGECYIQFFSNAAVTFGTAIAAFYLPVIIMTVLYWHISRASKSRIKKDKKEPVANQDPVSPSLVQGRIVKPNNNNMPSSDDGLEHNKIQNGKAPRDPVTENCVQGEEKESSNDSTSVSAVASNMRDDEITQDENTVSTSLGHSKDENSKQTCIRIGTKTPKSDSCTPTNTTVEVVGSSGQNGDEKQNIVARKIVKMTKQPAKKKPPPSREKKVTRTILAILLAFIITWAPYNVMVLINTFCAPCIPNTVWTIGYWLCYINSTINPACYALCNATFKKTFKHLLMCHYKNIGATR

M1 muscarinic receptor [2] = target: T2, M1 muscarinic receptor; experiment: accumulation of inositol phosphates IPX, M1 CHO cells (M1Gq); type: cell-based
M4 muscarinic receptor [3] = target: T4, M4 muscarinic receptor (Homo sapiens, UniProt P08173); experiment: inhibition of forskolin-stimulated cAMP, M4 CHO cells (M4Gi); type: cell-based
T4 sequence (P08173 1-479): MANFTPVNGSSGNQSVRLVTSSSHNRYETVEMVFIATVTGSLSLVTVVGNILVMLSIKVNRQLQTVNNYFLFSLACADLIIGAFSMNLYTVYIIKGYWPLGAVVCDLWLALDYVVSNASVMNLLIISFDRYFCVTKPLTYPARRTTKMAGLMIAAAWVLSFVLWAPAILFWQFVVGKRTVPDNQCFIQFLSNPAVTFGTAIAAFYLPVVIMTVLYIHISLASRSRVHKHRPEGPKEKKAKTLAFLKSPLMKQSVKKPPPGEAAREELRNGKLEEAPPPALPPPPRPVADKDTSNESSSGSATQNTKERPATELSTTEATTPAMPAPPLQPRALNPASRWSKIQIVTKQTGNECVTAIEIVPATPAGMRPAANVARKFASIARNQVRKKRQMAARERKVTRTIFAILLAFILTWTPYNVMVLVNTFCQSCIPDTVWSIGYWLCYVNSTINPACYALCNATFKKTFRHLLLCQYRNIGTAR

M4 muscarinic receptor [4] = target: T4, M4 muscarinic receptor; experiment: [3H]NMS competition binding, M4 CHO membranes; details: Inhibition constants (KI) as negative logarithms, reference agonists
[5] = M4 (↓cAMP), preferential response, Table 7
[6] = M4 (↓cAMP), preferential response, Table 7, operational efficacy
[7] = M4 (↓cAMP), preferential response, to carbachol, Tables 2, 3, 7
[8] = M4Gi (↓cAMP), Table 8, to carbachol

O=C1CCCN1CC#CCN1CCCC1 [oxotremorine, reference compound]
Kd (M5 muscarinic receptor): 251 nM
E′MAX (M5 muscarinic receptor; M5 (↑IPX), preferential response, Table 7): 16 ± 1 fold over basal
τ (M5 muscarinic receptor; M5 (↑IPX), preferential response, Table 7, operational efficacy): 2.60 ± 0.30
RAi (M5 muscarinic receptor; M5 (↑IPX), preferential response, relative to carbachol, Tables 2, 3, 7): 4.12 ± 0.26
Δlog(τ/KA) (M5 muscarinic receptor; M5 (↑IPX), preferential response, to carbachol, Tables 2, 3, 7): −0.62 ± 0.07
E′MAX (M5 muscarinic receptor; M5Gq (↑IPX), Table 8): 16 ± 1 fold over basal
pKA (M5 muscarinic receptor; M5Gq (↑IPX), Table 8): 6.6 ± 0.1
τ (M5 muscarinic receptor; M5Gq (↑IPX), Table 8): 2.2 ± 0.3
RAi (M5 muscarinic receptor; M5Gq (↑IPX), Table 8, relative to carbachol): 4.37 ± 0.29
Δlog(τ/KA) (M5 muscarinic receptor; M5Gq (↑IPX), Table 8, to carbachol): −0.64
EC50 (M5 muscarinic receptor; pEC50, M5 (↑IPX), preferential response, Table 7): 70.8 nM
EC50 (M5 muscarinic receptor; pEC50, M5Gq (↑IPX), Table 8): 74.1 nM
Ki (M3 muscarinic receptor; M3, high site): 10 nM
Ki (M3 muscarinic receptor; M3, low site): 447 nM
Ki (M1 muscarinic receptor [1]; M1, high site): 7.94 nM
Ki (M1 muscarinic receptor [1]; M1, low site): 372 nM
Ki (M2 muscarinic receptor; M2, high site, high affinity site): 12.6 nM
Ki (M2 muscarinic receptor; M2, low site, low affinity site): 575 nM
Kd (M1 muscarinic receptor [2]): 200 nM
RAi (M1 muscarinic receptor [2]): 3.71 ± 0.29 and 3.84 ± 0.28
pKA (M1 muscarinic receptor [2]): 6.7 ± 0.1
Δlog(τ/KA) (M1 muscarinic receptor [2]): −0.57 ± 0.06 and −0.58 ± 0.05
τ (M1 muscarinic receptor [2]): 2.55 ± 0.25 and 2.6 ± 0.3
EC50 (M1 muscarinic receptor [2]; pEC50): 52.5 nM and 55 nM
Kd (M4 muscarinic receptor [3]): 31.6 nM
Emax (M4 muscarinic receptor [3]; CHO): 48 ± 2%
pEC50 (M4 muscarinic receptor [3]; [5]): 7.85 ± 0.04
τ (M4 muscarinic receptor [3]; [6]): 1.17 ± 0.08
RAi (M4 muscarinic receptor [3]; M4 (↓cAMP), preferential response, relative to carbachol, Tables 2, 3, 7): 3.81 ± 0.16
Δlog(τ/KA) (M4 muscarinic receptor [3]; [7]): −0.62 ± 0.08
E′MAX (M4 muscarinic receptor [3]; M4Gi (↓cAMP), Table 8): 48 ± 2 % inhibition
pEC50 (M4 muscarinic receptor [3]; M4Gi (↓cAMP), Table 8): 7.85 ± 0.04
pKA (M4 muscarinic receptor [3]; M4Gi (↓cAMP), Table 8): 7.5 ± 0.1
τ (M4 muscarinic receptor [3]; M4Gi (↓cAMP), Table 8): 1.2 ± 0.1
RAi (M4 muscarinic receptor [3]; M4Gi (↓cAMP), Table 8, relative to carbachol): 3.81 ± 0.16
Δlog(τ/KA) (M4 muscarinic receptor [3]; [8]): −0.62 ± 0.08
Ki (M4 muscarinic receptor [4]; M4, high site, high affinity site): 12.6 nM
Ki (M4 muscarinic receptor [4]; M4, low site, low affinity site): 617 nM

C[N+](C)(C)CCOC(N)=O [carbachol, reference compound]
E′MAX (M4 muscarinic receptor [3]; [5]): 55 ± 2 % inhibition
τ (M4 muscarinic receptor [3]; [6]): 1.41 ± 0.08
Δlog(τ/KA) (M4 muscarinic receptor [3]; [7]): 0
E′MAX (M4 muscarinic receptor [3]; M4Gi (↓cAMP), Table 8): 55 ± 2 % inhibition
τ (M4 muscarinic receptor [3]; M4Gi (↓cAMP), Table 8): 1.4 ± 0.1
Δlog(τ/KA) (M4 muscarinic receptor [3]; [8]): 0
